Source: patent publication US10745429B2, “Phospholidines that are Bcl family antagonists for use in clinical management of conditions caused or mediated by senescent cells and for treating cancer” (Unity Biotechnology, Inc., priority 2018, dated 2020)
Each block holds one compound with its values, some of them ahead of it.

Assays:
[1] = test system: 3MR and INK-ATTAC mice exposed to cigarette smoke; assay: Cigarette smoke induced COPD model, pulse oximetry; format: in vivo, mouse; settings: after two months of cigarette smoke exposure, compared with untreated controls; FIG. 8
Protocol: As a model for chronic obstructive pulmonary disease (COPD), mice were exposed to cigarette smoke.
The effect of a senolytic agent on the mice exposed to smoke is assessed by senescent cell clearance, lung function, and histopathology.
The mice used in this study include the 3MR strain, described in US 2017/0027139 A1 and in Demaria et al., Dev Cell. 2014 Dec. 22; 31(6): 722-733. The 3MR mouse has a transgene encoding thymidine kinase that converts the prodrug ganciclovir (GCV) to a compound that is lethal to cells. The enzyme in the transgene is placed under control of the p16 promoter, which causes it to be specifically expressed in senescent cells. Treatment of the mice with GCV eliminates senescent cells.
Other mice used in this study include the INK-ATTAC strain, described in US 2015/0296755 A1 and in Baker et al., Nature 2011 Nov. 2; 479(7372):232-236. The INK-ATTAC mouse has a transgene encoding switchable caspase 8 under control of the p16 promoter. The caspase 8 can be activated by treating the mice with the switch compound AP20187, whereupon the caspase 8 directly induces apoptosis in senescent cells, eliminating them from the mouse.
To conduct the experiment, six-week-old 3MR (n=35) or INK-ATTAC (n=35) mice were chronically exposed to cigarette smoke generated from a Teague TE-10 system, an automatically-controlled cigarette smoking machine that produces a combination of side-stream and mainstream cigarette smoke in a chamber, which is transported to a collecting and mixing chamber where varying amounts of air is mixed with the smoke mixture. The COPD protocol was adapted from the COPD core facility at Johns Hopkins University (Rangasamy et al., 2004, J. Clin. Invest. 114:1248-1259; Yao et al., 2012, J. Clin. Invest. 122:2032-2045).
Mice received a total of 6 hours of cigarette smoke exposure per day, 5 days a week for 6 months. Each lighted cigarette (3R4F research cigarettes containing 10.9 mg of total particulate matter (TPM), 9.4 mg of tar, and 0.726 mg of nicotine, and 11.9 mg carbon monoxide per cigarette [University of Kentucky, Lexington, Ky.]) was puffed for 2 seconds and once every minute for a total of 8 puffs, with the flow rate of 1.05 L/min, to provide a standard puff of 35 cm3. […] The smoke chamber atmosphere was monitored for total suspended particulates (80-120 mg/m3) and carbon monoxide (350 ppm). […]
After two months of cigarette smoke (CS) exposure, lung function was assessed by monitoring oxygen saturation using the MouseSTAT PhysioSuite™ pulse oximeter (Kent Scientific). […] Mice were monitored for 30 seconds and the average peripheral capillary oxygen saturation (SpO2) measurement over this duration was calculated.

[2] = test system: primary cells from patients with B-cell malignancies; settings: in vitro studies; cited from earlier work
[3] = test system: cancer cells in human patients; settings: cited from earlier work
[4] = test system: C57BL/6J mice with osteoarthritis induced by ACL surgery; assay: Osteoarthritis model: anterior cruciate ligament surgery, intra-articular treatment; format: in vivo, mouse
Protocol: The model was implemented as follows. C57BL/6J mice underwent surgery to cut the anterior cruciate ligament of one rear limb to induce osteoarthritis in the joint of that limb. During week 3 and week 4 post-surgery, the mice were treated with 5.8 μg of Nutlin-3A (n=7) per operated knee by intra-articular injection, q.o.d. for 2 weeks. At the end of 4 weeks post-surgery, joints of the mice were monitored for presence of senescent cells, assessed for function, monitored for markers of inflammation, and underwent histological assessment.
Two control groups of mice were included in the studies performed: one group comprising C57BL/6J or 3MR mice that had undergone a sham surgery (n=3) (i.e., surgical procedures followed except for cutting the ACL) and intra-articular injections of vehicle parallel to the GCV (ganciclovir) treated group; and one group comprising C57BL/6J or 3MR mice that had undergone an ACL surgery and received intra-articular injections of vehicle (n=5) parallel to the GCV-treated group. RNA from the operated joints of mice from the Nutlin-3A treated mice was analyzed for expression of SASP factors (mmp3, IL-6) and senescence markers (p16). qRT-PCR was performed to detect mRNA levels.
Function of the limbs was assessed 4 weeks post-surgery by a weight bearing test to determine which leg the mice favored. The mice were allowed to acclimate to the chamber on at least three occasions prior to taking measurements. Mice were maneuvered inside the chamber to stand with one hind paw on each scale. The weight that was placed on each hind limb was measured over a three second period. At least three separate measurements were made for each animal at each time point. The results were expressed as the percentage of the weight placed on the operated limb versus the contralateral unoperated limb.

[5] = test system: LDLR-/- mice fed a high fat diet; assay: Atherosclerosis model, LDLR-/- mice on a high fat diet, systemic treatment; format: in vivo, mouse
Protocol: This example illustrates the testing of an MDM2 inhibitor in a mouse model for treatment of atherosclerosis. The test compounds are administered systemically rather than locally. The model is done in an LDLR−/− strain of mice, which are deficient in the receptor for low-density lipoprotein. The experiments described here can be adapted mutatis mutandis to test and develop other types of inhibitors for use in clinical therapy.
Two groups of LDLR−/− mice (10 weeks) are fed a high fat diet (HFD) (Harlan Teklad TD.88137) having 42% calories from fat, beginning at Week 0 and throughout the study. Two groups of LDLR−/− mice (10 weeks) are fed normal chow (−HFD). From weeks 0-2, one group of HFD mice and −HFD mice are treated with Nutlin-3A (25 mg/kg, intraperitoneally). One treatment cycle is 14 days treatment, 14 days off. Vehicle is administered to one group of HFD mice and one group of −HFD mice. At week 4 (timepoint 1), one group of mice are sacrificed and to assess presence of senescent cells in the plaques. For the some of the remaining mice, Nutlin-3A and vehicle administration is repeated from weeks 4-6. At week 8 (timepoint 2), the mice are sacrificed and to assess presence of senescent cells in the plaques. The remaining mice are treated with Nutlin-3A or vehicle from weeks 8-10. At week 12 (timepoint 3), the mice are sacrificed and to assess the level of plaque and the number of senescent cells in the plaques.
Plasma lipid levels were measured in LDLR−/− mice fed a HFD and treated with Nutlin-3A or vehicle at timepoint 1 as compared with mice fed a −HFD (n=3 per group). Plasma was collected mid-afternoon and analyzed for circulating lipids and lipoproteins.
At the end of timepoint 1, LDLR−/− mice fed a HFD and treated with Nutlin-3A or vehicle were sacrificed (n=3, all groups), and the aortic arches were dissected for RT-PCR analysis of SASP factors and senescent cell markers. Values were normalized to GAPDH and expressed as fold-change versus age-matched, vehicle-treated LDLR−/− mice on a normal diet.
At the end of timepoint 2, LDLR−/− mice fed a HFD and treated with Nutlin-3A or vehicle (n=3 for all groups) were sacrificed, and aortic arches were dissected for RT-PCR analysis of SASP factors and senescent cell markers. Values were normalized to GAPDH and expressed as fold-change versus age-matched, vehicle-treated LDLR−/− mice on a normal diet.
At the end of timepoint 3, LDLR−/− mice fed a HFD and treated with Nutlin-3A or vehicle (n=3 for all groups) were sacrificed, and aortas were dissected and stained with Sudan IV to detect the presence of lipid. Body composition of the mice was analyzed by MRI, and circulating blood cells were counted by Hemavet™.

SMILES: CC[C@H](C(=O)N1CCCC[C@H]1C(=O)O[C@H](CCc1ccc(OC)c(OC)c1)c1cccc(OCC(=O)NCC(CNC(=O)COc2cccc([C@@H](CCc3ccc(OC)c(OC)c3)OC(=O)[C@@H]3CCCCN3C(=O)[C@@H](CC)c3cc(OC)c(OC)c(OC)c3)c2)CN(C)C)c1)c1cc(OC)c(OC)c(OC)c1 [AP2018]
peripheral capillary oxygen saturation (SpO2) levels [1]: statistically significant increases

SMILES: CN(C)CC[C@H](CSc1ccccc1)Nc1ccc(S(=O)(=O)NC(=O)c2ccc(N3CCN(Cc4ccccc4-c4ccc(Cl)cc4)CC3)cc2)cc1[N+](=O)[O-] [ABT-737]
sensitivity of primary cells from patients with B-cell malignancies [2]: sensitive
efficacy against cancer cells in human patients [3]: effective against some types of cancer cells

SMILES: Nc1nc(O)c2ncn(COC(CO)CO)c2n1 [ganciclovir]
peripheral capillary oxygen saturation (SpO2) levels [1]: statistically significant increases

lymphocyte counts versus vehicle treated mice ([5]; timepoint 3 (week 12), Hemavet): equivalent
platelet counts versus vehicle treated mice ([5]; timepoint 3 (week 12), Hemavet): equivalent
SMILES: COc1ccc(C2=N[C@@H](c3ccc(Cl)cc3)[C@@H](c3ccc(Cl)cc3)N2C(=O)N2CCNC(=O)C2)c(OC(C)C)c1 [Nutlin-3A]
presence of senescent cells in the joint ([4]; 5.8 μg per operated knee intra-articular, 4 weeks post-surgery): cleared senescent cells from the joint
weight bearing test: weight placed on the operated limb versus the contralateral unoperated limb ([4]; 4 weeks post-surgery, effect = favoring the unoperated hind limb, FIG. 6A): abrogated this effect
histopathology of joint tissue: destruction of the proteoglycan layer ([4]; effect = proteoglycan layer destroyed by ACL surgery, FIGS. 6B-6D): completely abrogated this effect
expression of p16 in the tissue (mRNA, qRT-PCR) ([4]; operated joints, 5.8 μg per operated knee intra-articular q.o.d. for 2 weeks, 4 weeks post-surgery, FIG. 5A): reduced the expression back to below the level of the controls
expression of IL-6 in the tissue (mRNA, qRT-PCR) ([4]; operated joints, 5.8 μg per operated knee intra-articular q.o.d. for 2 weeks, 4 weeks post-surgery, FIG. 5B): reduced the expression back to below the level of the controls
expression of MMP13 in the tissue (mRNA, qRT-PCR) ([4]; operated joints, 5.8 μg per operated knee intra-articular q.o.d. for 2 weeks, 4 weeks post-surgery, FIG. 5C): reduced the expression back to below the level of the controls
peripheral capillary oxygen saturation (SpO2) levels [1]: statistically significant increases
expression of SASP factors and senescent cell markers MMP3, MMP13, PAI1, p21, IGFBP2, IL-1A, IL-1B in the aortic arch (RT-PCR) ([5]; 25 mg/kg intraperitoneally, timepoint 1 (week 4), after one treatment cycle): reduced expression of several SASP factors and senescent cell markers
expression of SASP factors and senescent cell markers in the aortic arch (RT-PCR) ([5]; 25 mg/kg intraperitoneally, timepoint 2 (week 8), multiple treatment cycles): reduced expression of most markers
reduction of the surface area covered by plaques in the descending aorta (Sudan IV) ([5]; 25 mg/kg intraperitoneally, timepoint 3 (week 12), FIG. 9): about 45%
body fat composition of mice fed the high fat diet (MRI) ([5]; timepoint 3 (week 12)): decreased
mass of mice fed the high fat diet ([5]; timepoint 3 (week 12)): decreased

SMILES: CC1(C)CCC(c2ccc(Cl)cc2)=C(CN2CCN(c3ccc(C(=O)NS(=O)(=O)c4ccc(N[C@H](CCN5CCOCC5)CSc5ccccc5)c(S(=O)(=O)C(F)(F)F)c4)cc3)CC2)C1 [ABT-263]
peripheral capillary oxygen saturation (SpO2) levels [1]: statistically significant increases
